For assay [1], the target named is T1, human leukocyte elastase (hLE) (Homo sapiens, UniProt P08246).
T1 construct: Neutrophils (1.4 billion) were isolated from whole blood obtained from a single healthy laboratory donor; from tissue; host or cells: neutrophils from whole blood of a single healthy donor
T1 sequence (P08246 30-247 limits assumed): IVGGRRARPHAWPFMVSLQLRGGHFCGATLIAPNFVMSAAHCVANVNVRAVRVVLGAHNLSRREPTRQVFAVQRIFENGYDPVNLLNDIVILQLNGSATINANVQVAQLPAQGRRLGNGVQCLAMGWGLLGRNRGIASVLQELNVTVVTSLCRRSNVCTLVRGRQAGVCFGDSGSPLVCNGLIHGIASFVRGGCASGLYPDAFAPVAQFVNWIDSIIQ
In words: In vitro inhibition of hLE (cleavage of MeOSuc-AAPV-NA). The following applies: for Ki: hLE Ki [μM], Table 2, substrate MeOSuc-AAPV-NA 200 μM, pH 7.4, 37 C. It counts as biochemical. As for the experimental part: (§1) The enzymatic activity was assayed with MeOSuc-AAPV-NA for hLE determination and Suc-AAPF-NA for hCG determination (both in 100 mM Hepes buffer, pH 7.4, containing 0.05% of the […] detergent Brij-35). The activities of the individual enzymatic fractions were 100% free from cross-contamination. […] The fractions containing hLE and hCG were dialyzed each against 0.1% pyridinium acetate, pH 5.3, divided into 20 aliquots, lyophilized, and stored at −20 ° C. until use.
(v) Inhibition experiments with hLE: Peptides were dissolved in 100 mM Hepes buffer pH 7.4 containing 0.1% Brij-35 with 10%. DMSO to yield 300 μM solutions, which were used to make further dilutions with the same buffer, and 80 μL aliquots were added in duplicates to 96-well plates. The substrate, 600 μM MeOSuc-AAPV-NA in the same buffer with 5% DMSO, was added to each well in addition to the blank wells, and the plate was placed in the plate reader equilibrated to 37 C (Dynateck MR-6000). Lyophilized aliquots of hLE were dissolved in 1600 μL of 100 mM Hepes buffer without DMSO, and 80 μL of the enzyme solution was added to the peptides and substrate to initiate the reaction. […] The final volume was 240 μL containing: 5% DMSO, 1-100 μM of peptide, 200 μM substrate, and 0.75 μg (˜25 picomol) enzyme.
(viii) Calculations: For hLE, V is determined by fitting a linear equation to the first 6 time-points (10 min) of the kinetics data using the least squares method. […] Several inhibitor concentration in duplicates and two control wells were used to fit a linear equation to graphs of Vo/Vi−1 vs. [I] for each inhibitor using the least squares method (8 data points for each inhibitor). From calculating the error in the slope of the equation, the relative error for Ki was deduced:
Ki={slope*(1+[S]/Km)}^−1because Ki=[I]*{(1+[S]/Km)*(Vo/Vi−1)}^−1.
(§2) The hLE inhibitory capability of CRP-derived peptides was evaluated by inhibiting the enzymatic cleavage of MeOSuc-AAPV-NA as described in Materials and Methods (section v).

Assay [2] addresses T2, human leukocyte cathepsin G (hCG) (Homo sapiens, UniProt P08311).
T2 construct: Neutrophils (1.4 billion) were isolated from whole blood obtained from a single healthy laboratory donor; from tissue; host or cells: neutrophils from whole blood of a single healthy donor
T2 sequence (P08311 21-243 limits assumed): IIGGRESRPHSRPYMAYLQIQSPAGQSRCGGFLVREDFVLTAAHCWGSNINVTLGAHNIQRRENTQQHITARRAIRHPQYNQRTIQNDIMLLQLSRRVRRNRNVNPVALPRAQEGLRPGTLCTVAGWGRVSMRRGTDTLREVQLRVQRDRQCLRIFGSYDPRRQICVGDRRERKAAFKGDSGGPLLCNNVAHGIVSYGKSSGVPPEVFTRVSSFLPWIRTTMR
The assay is described as follows: In vitro inhibition of hCG (cleavage of Suc-AAPF-NA). The conditions noted are these: for Ki: hCG Ki [μM], Table 2, substrate Suc-AAPF-NA 600 μM, pH 7.4. It counts as biochemical. As for the experimental part:
as §1
vi) Inhibition experiments with hCG: Similar conditions to hLE inhibition experiments were used except the substrate: 80 μL of 1.80 mM Suc-AAPF-NA. The enzyme was dissolved in 800 μL buffer, and the reaction was monitored every 6 min for 1 hour. The final volume was 240 μL containing: 5% DMSO, 1-100 μM peptide, 600 μM substrate, and 1.2 μg enzyme (about 40 picomol).
For hCG, V is determined by fitting a quadratic equation to the total kinetic data (60 min), using the least squares method and calculating V at t=0.
The hCG inhibitory capability of CRP-derived peptides was evaluated by inhibiting the enzymatic cleavage of Suc-AAPF-NA as described in Materials and Methods (section vi).

Assay [3] concerns the target T3, human leukocyte elastase (human, UniProt P08246 30-267).
T3 construct: mature; Active enzyme purified from human neutrophils; also called hLE
T3 sequence (looked up): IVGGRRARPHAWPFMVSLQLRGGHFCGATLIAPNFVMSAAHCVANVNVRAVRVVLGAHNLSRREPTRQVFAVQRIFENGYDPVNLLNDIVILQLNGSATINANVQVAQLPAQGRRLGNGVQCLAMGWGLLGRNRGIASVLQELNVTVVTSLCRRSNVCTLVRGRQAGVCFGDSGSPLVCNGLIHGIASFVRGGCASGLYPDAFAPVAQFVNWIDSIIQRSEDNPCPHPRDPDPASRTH
The assay is described as follows: hLE enzyme inhibition kinetics, cleavage of MeOSuc-AAPV-NA. Here is the method:
(§3) (v) Inhibition experiments with hLE: Peptides were dissolved in 100 mM Hepes buffer pH 7.4 containing 0.1% Brij-35 with 10%. DMSO to yield 300 µM solutions, which were used to make further dilutions with the same buffer, and 80 µL aliquots were added in duplicates to 96-well plates. The substrate, 600 µM MeOSuc-AAPV-NA in the same buffer with 5% DMSO, was added to each well in addition to the blank wells, and the plate was placed in the plate reader equilibrated to 37 C (Dynateck MR-6000). Lyophilized aliquots of hLE were dissolved in 1600 µL of 100 mM Hepes buffer without DMSO, and 80 µL of the enzyme solution was added to the peptides and substrate to initiate the reaction. The kinetics program read the plate at 405 nm every 2 min for 20 min (with a 3 sec shaking period between readings), and plotted the results as well as the average of each duplicate. The final volume was 240 µL containing: 5% DMSO, 1–100 µM of peptide, 200 µM substrate, and 0.75 µg (~25 picomol) enzyme.
as §2

For assay [4], the target named is T3, human leukocyte elastase. The assay is described as above. Here is the method: as §3, §2
This is another data set of the same source.

“Also recorded” adds a separate entry of the source. Where a SMILES comes first, the peptide text is derived from it.

The Ki is a measure of affinity in units of concentration, obtained from inhibition or displacement. For `CC[C@H](C)[C@H](NC(=O)[C@H](CC(=O)O)NC(=O)[C@H](CCCCN)NC(=O)[C@H](CO)NC(=O)[C@H](Cc1c[nH]c2ccccc12)NC(=O)[C@H](Cc1ccccc1)NC(=O)[C@@H](NC(=O)[C@H](CC(C)C)NC(=O)[C@@H](NC(=O)[C@H](CCC(=O)O)NC(=O)[C@H](CC(N)=O)NC(=O)[C@H](CC(=O)O)NC(=O)[C@H](CCC(N)=O)NC(=O)[C@H](CCCNC(=N)N)NC(=O)[C@H](CCCCN)NC(=O)[C@@H](NC(=O)[C@H](C)N)[C@@H](C)O)[C@@H](C)CC)[C@@H](C)CC)C(=O)NCC(=O)N[C@@H](Cc1ccc(O)cc1)C(=O)N[C@@H](CO)C(=O)N[C@@H](Cc1ccccc1)C(=O)N[C@H](C(=O)N[C@H](C(=O)NCC(=O)NCC(=O)N[C@@H](CO)C(=O)N[C@@H](CCC(=O)O)C(=O)N[C@H](C(=O)N[C@@H](CC(C)C)C(=O)O)[C@@H](C)CC)C(C)C)[C@@H](C)O` [Peptide 17] (H-ATKRQDNEILIFWSKDIGYSFTVGGSEIL-OH; N-terminus and C-terminus assumed), the “hLE inhibitory activity (in words)” value in assay [1] is recorded as “reduced inhibitory activity; also recorded: reduction of inhibitory activity”. Also, in assay [2], the “hCG inhibitory activity (in words)” value was “reduction of inhibitory activity” and the Ki was 5.5 ± 1 µM.

Regarding `CC[C@H](C)[C@H](NC(=O)[C@H](CC(=O)O)NC(=O)[C@H](CCCN)NC(=O)[C@H](CO)NC(=O)[C@H](Cc1c[nH]c2ccccc12)NC(=O)[C@H](Cc1ccccc1)NC(=O)[C@@H](NC(=O)[C@H](CC(C)C)NC(=O)[C@@H](NC(=O)[C@@H](N)CCC(=O)O)[C@@H](C)CC)[C@@H](C)CC)C(=O)NCC(=O)N[C@@H](Cc1ccc(O)cc1)C(=O)N[C@@H](CO)C(=O)N[C@@H](Cc1ccccc1)C(=O)N[C@H](C(=O)O)[C@@H](C)O` [Peptide 20, Glu-Ile-Leu-Ile-Phe-Trp-Ser-Orn-Asp-Ile-Gly-Tyr-Ser-Phe-Thr] (HELM PEPTIDE1{E.I.L.I.F.W.S.[Orn].D.I.G.Y.S.F.T}$$$$V2.0; N-terminus and C-terminus assumed), the “hLE inhibitory activity (in words)” value in assay [1] was “retained the same level of inhibitory activity as peptide 6”. In addition, the Ki in assay [1] came out at 0.25 ± 0.1 µM; in assay [2], 0.25 ± 0.05 µM.

On to `CC[C@H](C)[C@H](NC(=O)[C@H](CC(=O)O)NC(=O)[C@H](CCN)NC(=O)[C@H](CO)NC(=O)[C@H](Cc1c[nH]c2ccccc12)NC(=O)[C@H](Cc1ccccc1)NC(=O)[C@@H](NC(=O)[C@H](CC(C)C)NC(=O)[C@@H](NC(=O)[C@@H](N)CCC(=O)O)[C@@H](C)CC)[C@@H](C)CC)C(=O)NCC(=O)N[C@@H](Cc1ccc(O)cc1)C(=O)N[C@@H](CO)C(=O)N[C@@H](Cc1ccccc1)C(=O)N[C@H](C(=O)O)[C@@H](C)O` [Peptide 21, Glu-Ile-Leu-Ile-Phe-Trp-Ser-DAB-Asp-Ile-Gly-Tyr-Ser-Phe-Thr] (HELM PEPTIDE1{E.I.L.I.F.W.S.[Dab].D.I.G.Y.S.F.T}$$$$V2.0; N-terminus and C-terminus assumed), for which, in assay [1], the “hLE inhibitory activity (in words)” value is “retained the same level of inhibitory activity as peptide 6” and the affinity, expressed as Ki, was 0.2 ± 0.05 µM. In assay [2], this molecule returned a Ki of 0.85 ± 0.35 µM.

Take `CC[C@H](C)[C@H](NC(=O)[C@H](C)NC(=O)[C@H](CCCCN)NC(=O)[C@H](CO)NC(=O)[C@H](Cc1c[nH]c2ccccc12)NC(=O)[C@H](Cc1ccccc1)NC(=O)[C@@H](NC(=O)[C@H](CC(C)C)NC(=O)[C@@H](NC(=O)[C@@H](N)CCC(=O)O)[C@@H](C)CC)[C@@H](C)CC)C(=O)NCC(=O)N[C@@H](Cc1ccc(O)cc1)C(=O)N[C@@H](CO)C(=O)N[C@@H](Cc1ccccc1)C(=O)N[C@H](C(=O)O)[C@@H](C)O` [Peptide 22, Glu-Ile-Leu-Ile-Phe-Trp-Ser-Lys-Ala-Ile-Gly-Tyr-Ser-Phe-Thr] (H-EILIFWSKAIGYSFT-OH; N-terminus and C-terminus assumed): the “hLE inhibitory activity (in words)” value in assay [1] is reported as “large decrease in inhibition capacity”. The values for the Ki in assay [1] and in assay [2] were 3 ± 0.6 µM and 5.5 ± 1.5 µM, respectively.

As to `CC[C@H](C)[C@H](NC(=O)[C@H](CCC(=O)O)NC(=O)[C@H](CCCCN)NC(=O)[C@H](CO)NC(=O)[C@H](Cc1c[nH]c2ccccc12)NC(=O)[C@H](Cc1ccccc1)NC(=O)[C@@H](NC(=O)[C@H](CC(C)C)NC(=O)[C@@H](NC(=O)[C@@H](N)CCC(=O)O)[C@@H](C)CC)[C@@H](C)CC)C(=O)NCC(=O)N[C@@H](Cc1ccc(O)cc1)C(=O)N[C@@H](CO)C(=O)N[C@@H](Cc1ccccc1)C(=O)N[C@H](C(=O)O)[C@@H](C)O` [Peptide 23, Glu-Ile-Leu-Ile-Phe-Trp-Ser-Lys-Glu-Ile-Gly-Tyr-Ser-Phe-Thr] (H-EILIFWSKEIGYSFT-OH; N-terminus and C-terminus assumed), in assay [1], the “hLE inhibitory activity (in words)” value is “small decrease in inhibitory activity”. In addition, in assay [2], affinity was put at a Ki of 0.85 ± 0.25 µM.

In the assay with human leukocyte elastase [3], ATKRQDNEILIFWSKDIGYSFTVGGSEIL (Synthetic 29-mer) [peptide 17 (CRP55-83)] showed a Ki of 7300 nM.

B1: peptide 26 (peptide)
peptide: EILIFWSVDI
notes: 10-mer analog of peptide 14 (CRP62-71) with Lys69 replaced by Val; also called pep26
In the assay with human leukocyte elastase [3], B1 returned a Ki of 2000 nM.

Consider TFSYGIDKSWFILIE [peptide 24 (reverse sequence of peptide 6)], for which the “fold less active against peptide 6” value with human leukocyte elastase [4] is 30 fold. In the assay with human leukocyte elastase [3], this molecule came in with a Ki of 10000 nM.

B2: peptide 23 (peptide)
peptide: EILIFWSKEIGYSFT
notes: Analog of peptide 6 (CRP62-76) with Asp70 replaced by Glu; also called pep23
With B2, the affinity with human leukocyte elastase [3] corresponds to a Ki of 550 nM.

For the origin of these results see US6528618B1, “Anti-inflammatory peptides derived from C-reactive protein” (Yeda Research and Development Co. Ltd., priority 1997, dated 2003).
